molecular target: T1, ETA Receptor (Rattus norvegicus, UniProt P26684); assay: [125I]ET-1 binding to membranes from MMQ cells (ETA receptor binding assay, Table 4); details: test compound at 1 μM; 0.1 nM [125I]ET-1, MMQ cell membranes, 4 hours at 25° C.
T1 construct: endogenous in cells; host or cells: MMQ rat pituitary cells (membranes)
T1 sequence (P26684 21-426): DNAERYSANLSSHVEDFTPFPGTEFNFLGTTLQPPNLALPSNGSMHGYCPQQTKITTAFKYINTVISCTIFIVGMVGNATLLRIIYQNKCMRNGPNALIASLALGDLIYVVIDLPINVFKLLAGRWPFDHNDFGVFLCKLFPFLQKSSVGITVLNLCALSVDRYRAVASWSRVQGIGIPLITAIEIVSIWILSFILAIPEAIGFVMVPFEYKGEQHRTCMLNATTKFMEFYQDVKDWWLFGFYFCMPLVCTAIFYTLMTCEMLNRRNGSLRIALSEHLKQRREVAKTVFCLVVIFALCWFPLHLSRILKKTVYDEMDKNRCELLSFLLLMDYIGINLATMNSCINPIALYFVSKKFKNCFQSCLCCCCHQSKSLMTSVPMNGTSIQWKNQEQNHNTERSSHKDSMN
Procedure: Preparation of Membranes from MMQ Cells:
MMQ [MacLeod/MacQueen/Login cell line (prolactin secreting rat pituitary cells)] cells from 150 mL culture flasks were collected by centrifugation (1000×g for 10 min) and then homogenized in 25 mL of 10 mM Hepes (pH 7.4) containing 0.25 M sucrose and protease inhibitors [3 mM EDTA, 0.1 mM PMSF, and 5 μg/mL Pepstatin A] by a micro ultrasonic cell disrupter (Kontes). The mixture was centrifuged at 1000×g for 10 min. The supernatant was collected and centrifuged at 60,000×g for 60 min. The precipitate was resuspended in 20 mM Tris, pH 7.4 containing the above protease inhibitors and centrifuged again. The final pellet was resuspended in 20 mM Tris, pH 7.4 containing protease inhibitors and stored at −80° C. until used. Protein content was determined by the Bio-Rad dye-binding protein assay.
Binding assays were performed in 96-well microtiter plates pretreated with 0.1% BSA. […] After incubation, unbound ligands were separated from bound ligands by a vacuum filtration method using glass-fiber filter strips in PHD cell harvesters (Cambridge Technology, Inc., MA), followed by washing the filter strips with saline (1 mL) for three times. Nonspecific binding was determined in the presence of 1 μM ET-1.

Compared with CCCCN(CCCC)C(=O)CN1CC(c2ccc3c(c2)OCO3)C(C(=O)O)C1c1cccnc1 (stereo not drawn) [Example 130, trans,trans-1-(N,N-Di(n-butyl)aminocarbonylmethyl)-2-(3-pyridyl)-4-(1,3-benzodioxol-5-yl)pyrrolidine-3-carboxylic acid], CCCCN(CCCC)C(=O)CN1CC(c2ccc3c(c2)OCC3)C(C(=O)O)C1c1ccc(OC)cc1 (stereo not drawn) [Example 141, trans,trans-1-(N,N-Di(n-butyl)aminocarbonylmethyl)-2-(4-methoxyphenyl)-4-(6-benzo-2,3-dihydrofuranyl)pyrrolidine-3-carboxylic acid] is higher in “% Inhibition of ETA at 1 μM” value: 91.0% for the first, 92.8% for the second.

Going from CCCCS(=O)(=O)N(CCC)CCN1CC(c2ccc3c(c2)OCO3)C(C(=O)O)C1c1ccc(OC)cc1 (stereo not drawn) [Example 131, trans,trans-1-(2-(N-Propyl-N-(n-butylsulfonyl)amino)ethyl)-2-(4-methoxyphenyl)-4-(1,3-benzodioxol-5-yl)pyrrolidine-3-carboxylic acid] to CCCN(CCN1CC(c2ccc3c(c2)OCO3)C(C(=O)O)C1c1ccc(OC)cc1)S(=O)(=O)Cc1ccccc1 (stereo not drawn) [Example 133, trans,trans-1-(2-(N-Propyl-N-(benzylsulfonyl)amino)ethyl)-2-(4-methoxyphenyl)-4-(1,3-benzodioxol-5-yl)pyrrolidine-3-carboxylic acid], the “% Inhibition of ETA at 1 μM” value falls from 89.5% to 88.6%.

Compared with CCCN(CCN1CC(c2ccc3c(c2)OCO3)C(C(=O)O)C1c1ccc(OC)cc1)S(=O)(=O)c1ccc(Cl)cc1 (stereo not drawn) [Example 132, trans,trans-1-(2-(N-Propyl-N-(4-chlorobenzenesulfonyl)amino)ethyl)-2-(4-methoxyphenyl)-4-(1,3-benzodioxol-5-yl)pyrrolidine-3-carboxylic acid], CCCN(CCN1CC(c2ccc3c(c2)OCO3)C(C(=O)O)C1c1ccc(OC)cc1)S(=O)(=O)c1ccc(F)cc1 (stereo not drawn) [Example 134, trans,trans-1-(2-(N-Propyl-N-(4-fluorobenzenesulfonyl)amino)ethyl)-2-(4-methoxyphenyl)-4-(1,3-benzodioxol-5-yl)pyrrolidine-3-carboxylic acid] is higher in “% Inhibition of ETA at 1 μM” value: 90.0% for the first, 92.2% for the second.

Compared with CCCN(C)C(=O)CN1CC(c2cccc3occc23)C(C(=O)O)C1c1ccc(OC)cc1 (stereo not drawn) [Example 135B, trans,trans-1-(N-Methyl-N-propylaminocarbonylmethyl)-2-(4-methoxyphenyl)-4-(4-benzofuranyl)pyrrolidine-3-carboxylic acid], CCCN(C)C(=O)CN1CC(c2ccc3ccoc3c2)C(C(=O)O)C1c1ccc(OC)cc1 (stereo not drawn) [Example 136, trans,trans-1-(N-Methyl-N-propylaminocarbonylmethyl)-2-(4-methoxyphenyl)-4-(6-benzofuranyl)pyrrolidine-3-carboxylic acid] is higher in “% Inhibition of ETA at 1 μM” value: 77.7% for the first, 79.4% for the second.

Compared with CCCCN(CCCC)C(=O)CN1CC(c2cccc3occc23)C(C(=O)O)C1c1ccc(OC)cc1 (stereo not drawn) [Example 138, trans,trans-1-(N,N-Di(n-butyl)aminocarbonylmethyl)-2-(4-methoxyphenyl)-4-(4-benzofuranyl)pyrrolidine-3-carboxylic acid], CCCCN(CCCC)C(=O)CN1CC(c2ccc3ccoc3c2)C(C(=O)O)C1c1ccc(OC)cc1 (stereo not drawn) [Example 140, trans,trans-1-(N,N-Di(n-butyl)aminocarbonylmethyl)-2-(4-methoxyphenyl)-4-(6-benzofuranyl)pyrrolidine-3-carboxylic acid] is higher in “% Inhibition of ETA at 1 μM” value: 83.0% for the first, 106.3% for the second.

Compared with CCCCN(CCCC)C(=O)CN1CC(c2cccc3occc23)C(C(=O)O)C1c1ccc(OC)cc1 (stereo not drawn) [Example 139, trans,trans-1-(N,N-Di(n-butyl)aminocarbonylmethyl)-2-(4-methoxyphenyl)-4-(4-benzofuranyl)pyrrolidine-3-carboxylic acid], CCCCN(CCCC)C(=O)CN1CC(c2ccc(OC)cc2OC)C(C(=O)O)C1c1ccc(OC)cc1 (stereo not drawn) [Example 151, trans,trans-1-(N,N-Di(n-butyl)aminocarbonylmethyl)-2-(4-methoxyphenyl)-4-(2,4-dimethoxyphenyl)pyrrolidine-3-carboxylic acid] is lower in “% Inhibition of ETA at 1 μM” value: 98.6% for the first, 80.5% for the second.

Going from CCCN(C)C(=O)CN1CC(c2ccc3c(c2)CCC3)C(C(=O)O)C1c1ccc(OC)cc1 (stereo not drawn) [Example 142B, trans,trans-1-(N-Methyl-N-propylaminocarbonylmethyl)-2-(4-methoxyphenyl)-4-(5-indanyl)pyrrolidine-3-carboxylic acid] to CCCN(C)C(=O)CN1CC(c2ccc(F)c(F)c2)C(C(=O)O)C1c1ccc(OC)cc1 (stereo not drawn) [Example 144, trans,trans-1-(N-Methyl-N-propylaminocarbonylmethyl)-2-(4-methoxyphenyl)-4-(3,4-difluorophenyl)pyrrolidine-3-carboxylic acid], the “% Inhibition of ETA at 1 μM” value falls from 78.7% to 78.2%.

Compared with CCCN(C)C(=O)CN1CC(c2ccc3cc[nH]c3c2)C(C(=O)O)C1c1ccc(OC)cc1 (stereo not drawn) [Example 143, trans,trans-1-(N-Methyl-N-propylaminocarbonylmethyl)-2-(4-methoxyphenyl)-4-(6-indolyl)pyrrolidine-3-carboxylic acid], CCCN(C)C(=O)CN1CC(c2ccc(O)cc2)C(C(=O)O)C1c1ccc(OC)cc1 (stereo not drawn) [Example 146, trans,trans-1-(N-Methyl-N-propylaminocarbonylmethyl)-2-(4-methoxyphenyl)-4-(4-hydroxyphenyl)pyrrolidine-3-carboxylic acid] is higher in “% Inhibition of ETA at 1 μM” value: 20.6% for the first, 25.0% for the second.

Going from CCCN(C)C(=O)CN1CC(c2ccccc2)C(C(=O)O)C1c1ccc(OC)cc1 (stereo not drawn) [Example 145, trans,trans-1-(N-Methyl-N-propylaminocarbonylmethyl)-2-(4-methoxyphenyl)-4-(phenyl)pyrrolidine-3-carboxylic acid] to CCCN(C)C(=O)CN1CC(c2ccc(OC)cc2OC)C(C(=O)O)C1c1ccc(OC)cc1 (stereo not drawn) [Example 147, trans,trans-1-(N-Methyl-N-propylaminocarbonylmethyl)-2-(4-methoxyphenyl)-4-(2,4-dimethoxyphenyl)pyrrolidine-3-carboxylic acid], the “% Inhibition of ETA at 1 μM” value rises from 32.4% to 73.0%.

Compared with CCCCN(CCCC)C(=O)CN1CC(c2ccc3c(c2)CCO3)C(C(=O)O)C1c1ccc(OC)cc1 (stereo not drawn) [Example 148, trans,trans-1-(N,N-Di(n-butyl)aminocarbonylmethyl)-2-(4-methoxyphenyl)-4-(5-benzo-2,3-dihydrofuranyl)pyrrolidine-3-carboxylic acid], CCCCN(CCCC)C(=O)CN1CC(c2ccc(F)c(F)c2)C(C(=O)O)C1c1ccc(OC)cc1 (stereo not drawn) [Example 150, trans,trans-1-(N,N-Di(n-butyl)aminocarbonylmethyl)-2-(4-methoxyphenyl)-4-(3,4-difluorophenyl)pyrrolidine-3-carboxylic acid] is lower in “% Inhibition of ETA at 1 μM” value: 94.7% for the first, 93.6% for the second.

In the case of CCCCN(CCCC)C(=O)CN1CC(c2ccc(OC)cc2)C(C(=O)O)C1c1ccc(OC)cc1 (stereo not drawn) [Example 149, trans,trans-1-(N,N-Di(n-butyl)aminocarbonylmethyl)-2-(4-methoxyphenyl)-4-(4-methoxyphenyl)pyrrolidine-3-carboxylic acid], the “% Inhibition of ETA at 1 μM” value is reported as 84.6%.

From patent US7208517B1, “Endothelin antagonists” (Abbott Labortories, priority 1994, dated 2007)
